From US11987588B2, “Modulators of the beta-3 adrenergic receptor useful for the treatment or prevention of heart failure and disorders related thereto” (Arena Pharmaceuticals, Inc., priority 2017, dated 2024) come the findings set out here.

Chain of Beta-3 Adrenergic Receptor (P13945 whole entry, species assumed): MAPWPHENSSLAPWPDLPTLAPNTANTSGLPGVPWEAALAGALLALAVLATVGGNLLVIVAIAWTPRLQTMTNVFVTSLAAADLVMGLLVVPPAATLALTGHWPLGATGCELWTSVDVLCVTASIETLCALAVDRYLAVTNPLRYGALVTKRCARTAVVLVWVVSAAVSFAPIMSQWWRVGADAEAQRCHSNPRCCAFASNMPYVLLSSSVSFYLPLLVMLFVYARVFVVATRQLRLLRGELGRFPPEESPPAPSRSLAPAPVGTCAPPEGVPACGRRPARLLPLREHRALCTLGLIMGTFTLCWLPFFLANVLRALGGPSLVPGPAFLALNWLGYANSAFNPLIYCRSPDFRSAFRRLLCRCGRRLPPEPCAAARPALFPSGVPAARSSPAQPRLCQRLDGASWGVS

The assay addresses Beta-3 Adrenergic Receptor (Homo sapiens (Human), UniProt P13945). Description: Homogeneous Time-Resolved Fluorescence (HTRF) cAMP antagonist assay, IC50 determination. The format is cell-based. Particulars: CHO-K1 cells stably expressing recombinant receptor, isoproterenol at EC90. An outline of the steps:
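Antagonist mode: isoproterenol at its predetermined EC90 added after compound to recombinant CHO-K1 cells in IBMX-containing PBS, 1 h, room temperature. Compounds tested as 5-fold, 10-point dilutions, top final typically 10 or 100 μM. HTRF signal converted to cAMP via standard curve, giving IC50.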
Turning to `CCNS(=O)(=O)c1cccc(OC[C@@H](O)CNC2COC3(CCN(S(=O)(=O)c4cccc(-c5ccc(N)nc5)c4)CC3)C2)c1` (stereo partly drawn) [Compound 212, 3-((2S)-3-(8-(3-(6-aminopyridin-3-yl)phenylsulfonyl)-1-oxa-8-azaspiro[4.5]decan-3-ylamino)-2-hydroxypropoxy)-N-ethylbenzenesulfonamide], the 50% inhibitory concentration (IC50) was determined as 13.6 nM.

On to `CNS(=O)(=O)c1cccc(OC[C@@H](O)CN[C@H]2COC3(CCN(S(=O)(=O)c4ccc[n+]([O-])c4)CC3)C2)c1` [Compound 496, 3-((R)-3-((S)-2-hydroxy-3-(3-(N-methylsulfamoyl)phenoxy)propylamino)-1-oxa-8-azaspiro[4.5]decan-8-ylsulfonyl)pyridine 1-oxide], for which the half-inhibitory concentration (IC50) amounted to 541 nM.

In the case of `CNCc1ccc(-c2cccc(S(=O)(=O)N3CCC4(CC3)CC(NC[C@H](O)COc3cccc(S(=O)(=O)NC)c3)CO4)c2)cc1` (stereo partly drawn) [Compound 301, 3-((2S)-2-hydroxy-3-(8-(4′-((methylamino)methyl)biphenyl-3-ylsulfonyl)-1-oxa-8-azaspiro[4.5]decan-3-ylamino)propoxy)-N-methylbenzenesulfonamide], the IC50 amounted to 31.6 nM.

As for `O=C1CCCN1CCNS(=O)(=O)c1cccc(OC[C@@H](O)CNC2COC3(CCN(S(=O)(=O)c4ccc5ccccc5c4)CC3)C2)c1` (stereo partly drawn) [Compound 164, 3-((2S)-2-hydroxy-3-(8-(naphthalen-2-ylsulfonyl)-1-oxa-8-azaspiro[4.5]decan-3-ylamino)propoxy)-N-(2-(2-oxopyrrolidin-1-yl)ethyl)benzenesulfonamide], the IC50 worked out at 84.9 nM.

Regarding `CNS(=O)(=O)c1cccc(OC[C@@H](O)CN[C@H]2COC3(CCN(c4ncc(-c5ccccc5)cn4)CC3)C2)c1` [Compound 580, 3-((S)-2-hydroxy-3-((R)-8-(5-phenylpyrimidin-2-yl)-1-oxa-8-azaspiro[4.5]decan-3-ylamino)propoxy)-N-methylbenzenesulfonamide], the IC50 stood at 262 nM.

Regarding `O=S(=O)(NC1CC(F)(F)C1)c1cccc(OC[C@@H](O)CNC2COC3(CCN(S(=O)(=O)c4ccc5ccccc5c4)CC3)C2)c1` (stereo partly drawn) [Compound 89, N-(3,3-difluorocyclobutyl)-3-((2S)-2-hydroxy-3-(8-(naphthalen-2-ylsulfonyl)-1-oxa-8-azaspiro[4.5]decan-3-ylamino)propoxy)benzenesulfonamide], the IC50 stood at 429 nM.

Turning to `CCNS(=O)(=O)c1cccc(OC[C@@H](O)CNC2COC3(CCN(S(=O)(=O)c4ccc5c(c4)N(C)CCO5)CC3)C2)c1` (stereo partly drawn) [Compound 234, N-ethyl-3-((2S)-2-hydroxy-3-(8-(4-methyl-3,4-dihydro-2H-benzo[b][1,4]oxazin-6-ylsulfonyl)-1-oxa-8-azaspiro[4.5]decan-3-ylamino)propoxy)benzenesulfonamide], the IC50 was determined as 52.6 nM.

Turning to `CNS(=O)(=O)c1cccc(OC[C@@H](O)CNC2COC3(CCN(S(=O)(=O)c4cccc(Oc5ccccc5C(F)(F)F)c4)CC3)C2)c1` (stereo partly drawn) [Compound 170, 3-((2S)-2-hydroxy-3-(8-(3-(2-(trifluoromethyl)phenoxy)phenylsulfonyl)-1-oxa-8-azaspiro[4.5]decan-3-ylamino)propoxy)-N-methylbenzenesulfonamide], the IC50 was 50.6 nM.

In the case of `CNS(=O)(=O)c1cccc(OC[C@@H](O)CNC2COC3(CCN(S(=O)(=O)c4cc(S(=O)(=O)c5ccccc5)cs4)CC3)C2)c1` (stereo partly drawn) [Compound 190, 3-((2S)-2-hydroxy-3-(8-(4-(phenylsulfonyl)thiophen-2-ylsulfonyl)-1-oxa-8-azaspiro[4.5]decan-3-ylamino)propoxy)-N-methylbenzenesulfonamide], the concentration for half-maximal inhibition (IC50) came out at 18 nM.

As to `CNS(=O)(=O)c1cccc(OC[C@@H](O)CNC2COC3(CCN(S(=O)(=O)c4ccc(Cl)c(OC)c4)CC3)C2)c1` (stereo partly drawn) [Compound 206, 3-((2S)-3-(8-(4-chloro-3-methoxyphenylsulfonyl)-1-oxa-8-azaspiro[4.5]decan-3-ylamino)-2-hydroxypropoxy)-N-methylbenzenesulfonamide], the IC50 was 9.62 nM.

In the case of `CNS(=O)(=O)c1cccc(OC[C@@H](O)CN[C@@H]2COC3(CCN(S(=O)(=O)c4cnc5ccccc5c4)CC3)C2)c1` [Compound 335, 3-((S)-2-hydroxy-3-((S)-8-(quinolin-3-ylsulfonyl)-1-oxa-8-azaspiro[4.5]decan-3-ylamino)propoxy)-N-methylbenzenesulfonamide], the half-inhibitory concentration (IC50) came to 12.1 nM.

For `CNS(=O)(=O)c1cccc(OC[C@@H](O)CN[C@H]2COC3(CCN(c4nc(C)cc(C)n4)CC3)C2)c1` [Compound 577, 3-((S)-3-((R)-8-(4,6-dimethylpyrimidin-2-yl)-1-oxa-8-azaspiro[4.5]decan-3-ylamino)-2-hydroxypropoxy)-N-methylbenzenesulfonamide], the 50% inhibitory concentration (IC50) was determined as 102 nM.

For `CCNCc1ccc(-c2cccc(S(=O)(=O)N3CCC4(CC3)CC(NC[C@H](O)COc3cccc(S(=O)(=O)NC)c3)CO4)c2)cc1` (stereo partly drawn) [Compound 302, 3-((2S)-3-(8-(4′-((ethylamino)methyl)biphenyl-3-ylsulfonyl)-1-oxa-8-azaspiro[4.5]decan-3-ylamino)-2-hydroxypropoxy)-N-methylbenzenesulfonamide], the IC50 amounted to 458 nM.

Turning to `CCCCCCCc1cnc(N2CCC3(CC2)C[C@@H](NC[C@H](O)COc2cccc(S(=O)(=O)NC)c2)CO3)nc1` [Compound 578, 3-((S)-3-((R)-8-(5-heptylpyrimidin-2-yl)-1-oxa-8-azaspiro[4.5]decan-3-ylamino)-2-hydroxypropoxy)-N-methylbenzenesulfonamide], the IC50 was determined as 424 nM.

Consider `CNS(=O)(=O)c1cccc(OC[C@@H](O)CN[C@H]2COC3(CCN(c4ncc(C(=O)OC)cn4)CC3)C2)c1` [Compound 581, methyl 2-((R)-3-((S)-2-hydroxy-3-(3-(N-methylsulfamoyl)phenoxy)propylamino)-1-oxa-8-azaspiro[4.5]decan-8-yl)pyrimidine-5-carboxylate], for which the half-inhibitory concentration (IC50) came to 788 nM.

`CNS(=O)(=O)c1cccc(OC[C@@H](O)CNC2COC3(CCN(S(=O)(=O)c4ccc(C(C)(C)C)cc4)CC3)C2)c1` (stereo partly drawn) [Compound 36, 3-((2S)-3-(8-(4-tert-butylphenylsulfonyl)-1-oxa-8-azaspiro[4.5]decan-3-ylamino)-2-hydroxypropoxy)-N-methylbenzenesulfonamide]: the IC50 worked out at 13.2 nM.

For `CNS(=O)(=O)c1cccc(OC[C@@H](O)CN[C@H]2COC3(CCN(S(=O)(=O)c4cnc5[nH]nc(C)c5c4)CC3)C2)c1` [Compound 497, 3-((S)-2-hydroxy-3-((R)-8-(3-methyl-1H-pyrazolo[3,4-b]pyridin-5-ylsulfonyl)-1-oxa-8-azaspiro[4.5]decan-3-ylamino)propoxy)-N-methylbenzenesulfonamide], the concentration for half-maximal inhibition (IC50) came out at 16.4 nM.

Regarding `CCOc1ccc(-c2ccc(CNC(C)C)cc2)cc1S(=O)(=O)N1CCC2(CC1)C[C@@H](NC[C@H](O)COc1cccc(S(=O)(=O)NC)c1)CO2` [Compound 439, 3-((S)-3-((R)-8-(4-ethoxy-4′-((isopropylamino)methyl)biphenyl-3-ylsulfonyl)-1-oxa-8-azaspiro[4.5]decan-3-ylamino)-2-hydroxypropoxy)-N-methylbenzenesulfonamide], the IC50 was 27.2 nM.

In the case of `CNS(=O)(=O)c1cccc(OC[C@@H](O)CNC2COC3(CCN(S(=O)(=O)c4cccc(-c5ccc(CC(=O)O)cc5)c4)CC3)C2)c1` (stereo partly drawn) [Compound 87, 2-(3′-(3-((S)-2-hydroxy-3-(3-(N-methylsulfamoyl)phenoxy)propylamino)-1-oxa-8-azaspiro[4.5]decan-8-ylsulfonyl)biphenyl-4-yl)acetic acid], the IC50 was 66.1 nM.

Consider `CNS(=O)(=O)c1cccc(OC[C@@H](O)CNC2COC3(CCN(S(=O)(=O)c4cccc(-c5ccc(C(N)=O)cc5)c4)CC3)C2)c1` (stereo partly drawn) [Compound 368, 3′-(3-((S)-2-hydroxy-3-(3-(N-methylsulfamoyl)phenoxy)propylamino)-1-oxa-8-azaspiro[4.5]decan-8-ylsulfonyl)biphenyl-4-carboxamide], for which the IC50 stood at 35.2 nM.

For `CNS(=O)(=O)c1cccc(OC[C@@H](O)CN[C@H]2COC3(CCN(S(=O)(=O)c4cccc(-c5ccc(CNCC(C)C)cc5)c4)CC3)C2)c1` [Compound 363, 3-((S)-2-hydroxy-3-((R)-8-(4′-((isobutylamino)methyl)biphenyl-3-ylsulfonyl)-1-oxa-8-azaspiro[4.5]decan-3-ylamino)propoxy)-N-methylbenzenesulfonamide], the IC50 is 123 nM.

Take `CNS(=O)(=O)c1cccc(OC[C@@H](O)CN[C@H]2COC3(CCN(S(=O)(=O)c4cc(C)cc5c(O)ccnc45)CC3)C2)c1` [Compound 547, 3-((S)-2-hydroxy-3-((R)-8-(4-hydroxy-6-methylquinolin-8-ylsulfonyl)-1-oxa-8-azaspiro[4.5]decan-3-ylamino)propoxy)-N-methylbenzenesulfonamide]: the IC50 was determined as 179 nM.

`CNS(=O)(=O)c1cccc(OC[C@@H](O)CN[C@H]2COC3(CCN(S(=O)(=O)c4cnc5c(c4)N(C)CCCO5)CC3)C2)c1` [Compound 487, 3-((S)-2-hydroxy-3-((R)-8-(1-methyl-1,2,3,4-tetrahydropyrido[2,3-b][1,4]oxazepin-8-ylsulfonyl)-1-oxa-8-azaspiro[4.5]decan-3-ylamino)propoxy)-N-methylbenzenesulfonamide]: the IC50 came out at 25.2 nM.

`CNS(=O)(=O)c1cccc(OC[C@@H](O)CNC2COC3(CCN(S(=O)(=O)c4ccc5c(c4)NCCO5)CC3)C2)c1` (stereo partly drawn) [Compound 355, 3-((2S)-3-(8-(3,4-dihydro-2H-benzo[b][1,4]oxazin-6-ylsulfonyl)-1-oxa-8-azaspiro[4.5]decan-3-ylamino)-2-hydroxypropoxy)-N-methylbenzenesulfonamide]: the IC50 worked out at 17.2 nM.

As to `CCNS(=O)(=O)c1cccc(OC[C@@H](O)CNC2COC3(CCN(S(=O)(=O)c4ccc(-c5ccccc5)s4)CC3)C2)c1` (stereo partly drawn) [Compound 233, N-ethyl-3-((2S)-2-hydroxy-3-(8-(5-phenylthiophen-2-ylsulfonyl)-1-oxa-8-azaspiro[4.5]decan-3-ylamino)propoxy)benzenesulfonamide], the IC50 turned out to be 156 nM.
